≈ marks a conversion by molar mass, not a printed value. Peptide text beside a SMILES is read from it.
Key:
pronase E = type: in vitro ADME
Method: Proteolytic Stability Assay of Peptides:
Stock solution (0.56 mg/ml) of each peptide was prepared by dissolving the peptide in PBS (pH=7.4). To each 90 μl of peptide solution 10 μl of enzyme solution, containing either a mixture of 0.5 μg trypsin (0.05 mg/ml) and 0.5 μg chymotrypsin (0.05 mg/ml) or 4 μg pronase E (0.4 mg/ml) in 0.001M HCl, was added. The enzymatic degradation of the peptide was monitored at controlled temperature of 25° C. by RP-HPLC with detection at 220 nm using Phenomenex C18 4.6×250 mm column with 5 μm particle size and 110 Å pore size. Elution gradient was: t=0 minutes, B=15%; t=5 minutes, B=15%; t=40 minutes, B=70%; t=42 minutes, B=95%; t=52 minutes, B=95% (flow rate 1 ml/minute).
Enzymes concentrations were determined by preliminary experiment that was performed to screen for concentrations allowing complete degradation of C-Modelin-1 within 1-2 hours. 10 μl of enzyme solution with varying concentrations were added to 90 μl of peptide solution (0.56 mg/ml) and enzymatic degradation of the peptide was monitored by RP-HPLC.
The enzymatic degradation was monitored at a fixed temperature of 25° C. by RP-HPLC at 220 nm, as described before. Elution gradient started with 85% A/15% B for 5 minutes continued with 30% A/70% B for 35 minutes and ended with 5% A-95% B for 12 minutes.
All the enzymes were used in concentrations allowing complete degradation of C-Modelin-1 within […].

biofilm = assay: Biovolume of biofilm on graft-polymerized RO membranes (FIGS. 4-6); type: cell-based; conditions: immobilized on RO membrane after graft polymerization and 1,4-butadiamine; FIGS. 4 and 5
Text: FIGS. 4 and 5 show the biovolume of biofilm on RO membranes modified with Cys-Modelin-1, whereas in FIG. 4: (A) is an unmodified membrane (control), (B) is after Graft polymerization (GP), (C) is after GP and 1,4-butadiamine, (D) is after GP, 1,4-butadiamine and MI (maleimide-hexanoic acid), and (E) is after GP, 1,4-butadiamine, MI and C-Modelin-1.
Another example for immobilization through multivalent system is shown in FIG. 6, showing the volume of the biofilm by graft polymerization with 0.2:0.2 M MA:PEGM and immobilization with All-D-Cys-Modelin-1. […] The inhibition was very much dependent of the graft polymerization step: Grafting by 0.2:0.2 M of monomers PEGMA:MA (see Scheme 6 for monomer structures) gave the best results.

Enterobacter = type: cell-based
Method: The IC50 is determined by an essay, suitable for the specific film-forming microorganism in question. For example, in the present invention, the Enterobacter assay, which is described in detail in the methods section below, was used to determine the antimicrobial activities of the tested peptides.
Quantitative Biofilm Growth Inhibition Assay in a 96-Wells Microtiter Plate:
Enterobacter culture (50 ml) was grown in tryptic soy broth media (TBS; prepared according to manufacturer instructions) overnight at 25° C. On the next day the turbidity of the culture was measured at 600 nm (Biomate 5 UV-Vis spectrophotometer, Thermo Fisher Scientific, Waltham, Mass.) and, if necessary, TSB was added to dilute the culture until the OD was 1.
Then 96 wells polystyrene microtiter plates (flat bottom, transparent, Becton Dickinson, Franklin Lakes, New-Jersey) were filled as following: Negative control wells (without bacteria) were filled with 125 μl TSB media and 25 μl of DDW:PBS1:1 buffer solution; Positive control wells (without peptide solution) were filled with 110 μl TSB media, 25 μl of DDW:PBS1:1 buffer solution and 15 μl of Enterobacter culture solution; Wells that contained AMPs at different concentrations were filled with 110 μl TSB media, 25 μl of peptide solution and 15 μl of Enterobacter culture solution.
The plates were incubated at 25° C. overnight. On the next day the plates were gently rinsed 5 times with distilled water to remove the planktonic bacteria and then dried at room temperature for 10 minutes. Then the biofilm on the walls of the wells was dyed by adding 200 μl, of 3% crystal violet (CV) to the wells. After 15 minutes at room temperature, the plates were gently rinsed 5 times with distilled water to remove excess dye and dried at room temperature for 10 minutes (Djordjevic, Wiedmann & McLandsborough 2002). The dry plates were filled with 200 μl ethanol, covered and gently agitated (Duomax 1030 rocking platform shaker, Heidolph, Kelheim, Germany) for 1 hour. The absorbance of extracted color was measured in a plate reading spectrophotometer (Infinite M200, Tecan, Mannedorf, Switzerland) at 595 nm.
The effect of linking the arm to a peptide, on the antimicrobial activity of the peptides was assessed by measuring the peptide activity in 96-microtitter plates in solution and comparing to activities of the normal peptides. Experiments were performed in water and in 3% NaCl solution. Table 6 presents the antimicrobial activity (IC50) of peptide-arm systems, in water and in 3% NaCl solution. Values were extracted from dose-response curves.
Different concentration solutions of peptides, bought or prepared as detailed in the methods section above, were prepared by diluting a stock solution with 1% ACN. Stock solution was prepared by dissolving water soluble peptides in DDW:PBS1:1. PBS (pH=7.4) was prepared by adding to 800 ml DDW, 8 grams NaCl, 0.2 grams KCl, 1.44 grams Na2HPO4 and 0.2 grams KH2PO4.
To evaluate whether attachment of a tether to the AMPs has an effect on the inhibitory potency, a PEGylated peptide (HS-PEG-D-Modelin-1) was prepared, and its inhibitory potency compared to that of the ‘normal’ peptide All-D-Modelin-1. Peptides were diluted in 2-fold serial dilutions, and the antibacterial activity of the peptides was determined in sterile 96-multititter plates.

Row | SMILES | digestion first detected after (pronase E) [min] | peptides completely degraded after (pronase E) [min] | reduced biofilm growth (biofilm) [%] | IC50 (Enterobacter) [µg/mL]
1 | CC(C)C[C@H](NC(=O)[C@H](CCCCN)NC(=O)[C@H](CC(C)C)NC(=O)[C@H](Cc1c[nH]c2ccccc12)NC(=O)[C@H](CCCCN)NC(=O)[C@H](CCCCN)NC(=O)[C@H](C)NC(=O)[C@H](Cc1c[nH]c2ccccc12)NC(=O)[C@H](CCCCN)NC(=O)[C@H](CCCCN)NC(=O)[C@H](Cc1c[nH]c2ccccc12)NC(=O)[C@H](CC(C)C)NC(=O)[C@H](CCCCN)NC(=O)[C@@H](N)CS)C(=O)N[C@@H](Cc1c[nH]c2ccccc12)C(=O)N[C@@H](CCCCN)C(=O)N[C@@H](C)C(=O)N[C@@H](Cc1c[nH]c2ccccc12)C(=O)O [C-Modelin-1, CKLWKKWAKKWLKLWKAW] (H-CKLWKKWAKKWLKLWKAW-OH) | 5 | 135 | 65 | 11 (≈ 4.52 µM)
2 | O=C(O)CCCCCN1C(=O)C=CC1=O [maleimide-hexanoic acid, 6-maleimidohexanoic acid] |  |  | 95 | 
